According to US4426389A, “Derivatives of clavulanic acid, a process for their preparation and their use” (Beecham Group Limited, priority 1979, dated 1984):
Values after ≈ are worked out from the molar mass of the structure shown.

Key:
Assay type in all cases: cell-based
[1] = test system: Staph. aureus Russell; experiment: MIC by standard microtitre technique (dilution in tryptone soy broth), Staph. aureus Russell; conditions: Staphylococcus aureus, alone
Description: (§1) By a standard microtitre technique the MIC values for ampicillin alone, ampicillin and 9-N-(2'-cyanoethyl)aminodeoxyclavulanic acid and 9-N-(2'-cyanoethyl)aminodeoxyclavulanic acid alone were determined.
(§2) MIC μg/ml (dilution in tryptone soy broth)

[2] = test system: Kleb. aerogenes E70; experiment: MIC by standard microtitre technique (dilution in tryptone soy broth), Kleb. aerogenes E70; conditions: Klebsiella aerogenes, alone
[3] = test system: E. coli JT39; experiment: MIC by standard microtitre technique (dilution in tryptone soy broth), E. coli JT39; conditions: Escherichia coli, alone
Description: as §1, §2

[4] = test system: Staph. aureus Oxford; experiment: Antibacterial activity, MIC, Staph. aureus Oxford; conditions: Staphylococcus aureus
Description: (§3) Antibacterial activity of 9-N-(2'-cyanoethyl)aminodeoxyclavulanic acid, MIC μg/ml.

[5] = test system: Staph. aureus Russell; experiment: Antibacterial activity, MIC, Staph. aureus Russell; conditions: Staphylococcus aureus
Description: as §3

[6] = test system: Strep. Pyogenes; experiment: Antibacterial activity, MIC, Strep. Pyogenes; conditions: Streptococcus pyogenes
Description: as §3

[7] = test system: Strep. Pneumoniae; experiment: Antibacterial activity, MIC, Strep. Pneumoniae; conditions: Streptococcus pneumoniae
Description: as §3

Row | Structure (SMILES) | MIC [1] [µg/mL] | MIC [2] [µg/mL] | MIC [3] [µg/mL] | MIC [4] [µg/mL] | MIC [5] [µg/mL] | MIC [6] [µg/mL] | MIC [7] [µg/mL]
1 | CC1(C)S[C@@H]2[C@H](NC(=O)[C@H](N)c3ccccc3)C(=O)N2[C@H]1C(=O)O [Ampicillin, ampicillin, reference compound] | 500 to 1000 (≈ 1430 to 2860 µM) | 500 to 1000 (≈ 1430 to 2860 µM) | – | – | – | – | –
2 | N#CCCNC/C=C1\O[C@@H]2CC(=O)N2[C@H]1C(=O)O [9-N-(2'-Cyanoethyl)aminodeoxyclavulanic acid] | 16 (≈ 63.7 µM) | 250 (≈ 995 µM) | 31 (≈ 123 µM) | 10 to 20 (≈ 39.8 to 79.6 µM) | 10 to 20 (≈ 39.8 to 79.6 µM) | 10 (≈ 39.8 µM) | 5 (≈ 19.9 µM)
